These are literature values, as cited in patent US9950023B1, “Composition for the treatment of acne” (Parham Tabibian, MD, Inc., priority 2014, dated 2018).

In series [1] the test system is interleukin-8 (IL-8). The note with it: dose-dependent manner.
The test system of series [2] is biofilm-associated P. acnes. The note with it: in vitro; concentrations as given in the label.
In series [3] the test system is P. acnes biofilm. The note with it: clinical tests, trans Resveratrol extracts.

`NC(=O)c1cccnc1` [Nicotinamide]: in series [1], the “interleukin-8 (IL-8) production” value was “decreasing interleukin-8 (IL-8) production in a dose-dependent manner”.
As to `Oc1cc(Cl)ccc1Oc1ccc(Cl)cc1Cl` [0.1% triclosan, triclosan], the reducing biofilm mass entry in series [2] is reported as “effective”.
Regarding `Oc1ccc(C=Cc2cc(O)cc(O)c2)cc1` [Resveratrol], the “inhibition of P. acnes biofilm formation” value in series [3] is reported as 99.2%.
